Consider one compound from patent US12569448B2, “Membrane-based two component therapeutic gas release system for oral administration” (Julius-Maximilians-Universitaet Wuerzburg, priority 2019, dated 2026).

The nature of this data set: CO release rates from free CORM and OCORS systems. Format: physicochemical. The protocol: This example illustrates the influence of the wall thickness of the silicone membrane on the release rate of the therapeutic gas.
The trigger compounds FeCl3 and Na2SO3 were used in aqueous solution and in molar excess amounts relative to the CORM.
In Table 1, Cmax describes the highest value measured for the therapeutic gas concentration. Tmax is the time, at which this value was measured. 090% describes 90% of Cmax, and T90% is the time point, at which 90% of Cmax were released. For the free metal carbonyl, a different release vessel was used than for the CO releasing systems, and therefore, the absolute values for Cmax differ.

[1] abbreviates: trigger in aqueous solution in molar excess.

For `[C-]#[N+]CC(=O)O.[C-]#[N+]CC(=O)O.[C-]#[N+]CC(=O)O.[C-]#[O+].[C-]#[O+].[C-]#[O+].[Mo]` [Entry 1, Mo(CO)3(CNCH2CO2H)3], the “C90% (90% of Cmax)” value (free carbonyl measured in a different release vessel) is 576.7 ppm. For the same compound, under setting [1], the “T90% (time point at which 90% of Cmax were released)” value amounted to 17 min and the “Tmax (time at which Cmax was measured)” value is given as 44 min. The “Cmax (highest value measured for the therapeutic gas concentration)” value (trigger in aqueous solution in molar excess, free carbonyl measured in a different release vessel than the OCORS systems) came to 640.8 ppm.
